These results are taken from PMC12299477 (Viruses, 2025).

One series relates to HCoV-OC43. Description: Virus inhibition assay (focus reduction), HCoV-OC43 on MRC-5 cells. It is filed as cell-based, human coronavirus. The note with it: for EC50: Betacoronavirus 1, OC43, MRC5, read-out: EC50 (µM) (95% CI); for activity at 0.3 µM / activity at 3 µM / activity at 33 µM: Betacoronavirus 1, OC43, MRC5, 20 h, read-out: Residual Virus Infectivity (%) HCoV-OC43.
Series [1] in a line: Cell viability MTS assay on MRC-5 cells. Type of series: cell-based. The note with it: human, same conditions as HCoV inhibition assay, read-out: CC50 (µM) (95% CI).
A further series has as its system RSV-A2. The series can be described thus: Virus inhibition assay (plaque reduction), RSV-A2 on Hep-2 cells. Type of series: cell-based. The note with it: human respiratory syncytial virus; for activity at 0.3 µM / activity at 3 µM / activity at 33 µM: HEp-2, 72 h, read-out: Residual Virus Infectivity (%) RSV-A2.
The test system of the next series is Hep-2 cells. Description: Cytotoxic effect microscopically visible in the RSV-A2 screening. Type of series: cell-based, human. Set-up: key: -: Cytotoxic effect microscopically visible.
The subject of another series is MRC-5 cells. The series can be described thus: Cytotoxic effect microscopically visible in the HCoV-OC43 screening. Type of series: cell-based, human. Set-up: key: -: Cytotoxic effect microscopically visible. The note with it: 33 µM.
For the next series, the system named is MDCK cells. Description: Cytotoxic effect microscopically visible in the IFV-A H1N1 screening. Type of series: cell-based, canine. More on the design: key: -: Cytotoxic effect microscopically visible. The note with it: 33 µM.
The next series deals with IFV-A H1N1. Description: Virus inhibition assay (focus reduction), IFV-A H1N1 on MDCK cells. The note with it: Influenza A virus, read-out: EC50 (µM) (95% CI). It is filed as cell-based.
A short description of series [2]: Cell viability MTS assay on MDCK cells. The note with it: dog.
Series [3] can be described thus: in vitro. The note with it: human.
Series [4] can be described thus: Cell viability MTS assay on Hep-2 cells. The note with it: human. (Formazan colour is commonly taken as a measure of viable cells.)
The nature of series [5]: in vitro. The note with it: dog.
Setting [6] is: RSV-A2, Hep-2 cells, read-out: EC50 (µM) (95% CI).

Molecules are shown by their SMILES. Read-outs that look alike come from different tables or passages of the source.

In general, EC50 refers to the concentration that produces a half-maximal response. Turning to `O=C(N[C@@H](Cc1ccc(O)cc1)C(=O)O)c1ccc(=O)n2c1sc1ccc(OC3CCCCC3)cc12` [Compound 27], the 50% effective concentration (EC50) with HCoV-OC43 was 10 µM. In addition, in series [1], the CC50 turned out to be 189 µM.

Regarding `O=C(O)C1CCN(C(=O)c2cc(-c3ccccc3)c(=O)n3c2sc2ccc(OC4CCCCC4)cc23)C1` (centres unmarked) [Compound 20], in the series with RSV-A2, the activity at 0.3 µM amounted to 100%, the activity at 3 µM was found to be 100% and the activity at 33 µM is 100%.

On to `C[C@H](CO)NC(=O)c1cc(-c2ccccc2)c(=O)n2c1sc1ccc(OC3CCCCC3)cc12` [Compound 7], for which the “Cytotoxic effect microscopically visible” value in the series with Hep-2 cells (3 µM), with Hep-2 cells (33 µM), in the series with MRC-5 cells and in the series with MDCK cells was “-” in each case.

In the case of `O=C(O)CCNC(=O)c1cc(-c2ccccc2)c(=O)n2c1sc1ccc(OC3CCCCC3)cc12` [Compound 10], the EC50 in the series with HCoV-OC43 was 7.97 µM. For the same molecule, the CC50 in [1] was > 200 µM. For the same molecule, in the series on Hep-2 cells (33 µM), the “Cytotoxic effect microscopically visible” value was “-”.

For `O=C(N[C@@H](Cc1ccc(O)cc1)C(=O)O)c1cc(-c2cccs2)c(=O)n2c1sc1ccc(OC3CCCCC3)cc12` [Compound 25], the results for the 50% effective concentration (EC50) in the series on HCoV-OC43 and in the series on IFV-A H1N1 were 0.29 µM and 13.7 µM, respectively. Also, the CC50 in [1] is 16.5 µM; in [2] it was 86.1 µM. In addition, the “Cytotoxic effect microscopically visible” value in the series with Hep-2 cells (33 µM) is reported as “-”.

Take `O=C(N[C@@H](Cc1ccc(O)cc1)C(=O)O)c1cc(-c2ccc(Cl)cc2)c(=O)n2c1sc1ccc(OC3CCCCC3)cc12` [Compound 9]: the EC50 in the series with HCoV-OC43 stood at 1.2 µM. In addition, the CC50 in series [1] came out at 55.6 µM. Further, the “Cytotoxic effect microscopically visible” value with Hep-2 cells (33 µM) is on record as “-”.

Take `NS(=O)(=O)c1ccc(OC(=O)c2cc(NCCN3CCOCC3)c(=O)n3c2sc2ccc(OC4CCCCC4)cc23)cc1` [Compound 29]: the “Cytotoxic effect microscopically visible” value in the series with Hep-2 cells (33 µM), with MRC-5 cells and with MDCK cells was “-” in each case.

Turning to `O=C(NCC1(C(=O)O)CC1)c1cc(-c2ccccc2)c(=O)n2c1sc1ccc(OC3CCCCC3)cc12` [Compound 4], the “Cytotoxic effect microscopically visible” value with Hep-2 cells (33 µM) and in the series on MRC-5 cells was “-” each time.

Take `NS(=O)(=O)c1ccc(OC(=O)c2ccc(=O)n3c2sc2ccc(OC4CCCCC4)cc23)cc1` [Compound 24]: the “Cytotoxic effect microscopically visible” value in the series on Hep-2 cells (33 µM), in the series with MRC-5 cells and in the series with MDCK cells was “-” throughout.

With `CC(C)C(CC(=O)O)NC(=O)c1cc(-c2ccccc2)c(=O)n2c1sc1ccc(OC3CCCCC3)cc12` (centres unmarked) [Compound 19], the “Cytotoxic effect microscopically visible” value in the series with Hep-2 cells (33 µM), in the series with MRC-5 cells and in the series on MDCK cells was “-” throughout.

Take `O=C(N[C@@H](Cc1ccc(O)cc1)C(=O)O)c1cc(-c2ccc(F)cc2)c(=O)n2c1sc1ccc(OC3CCCCC3)cc12` [Compound 14]: the half-maximal effective concentration (EC50) in the series with HCoV-OC43 came to 1.09 µM. Besides, in series [1], the CC50 amounted to 62.2 µM. The “Cytotoxic effect microscopically visible” value in the series with Hep-2 cells (33 µM) was “-”.

For `O=C(N[C@@H](Cc1ccc(O)cc1)C(=O)O)c1cc(-c2ccccc2)c(=O)n2c1sc1cc(OC3CCCCC3)ccc12` [Compound 5], the “Cytotoxic effect microscopically visible” value in the series with Hep-2 cells (33 µM) and in the series with MRC-5 cells was “-” throughout.

As to `NS(=O)(=O)c1ccc(OC(=O)c2cc(-c3ccccc3)c(=O)n3c2sc2ccc(OC4CCCCC4)cc23)cc1` [Compound 23], in the series on HCoV-OC43, the EC50 was 0.23 µM. For the same molecule, the CC50 in series [1] is 18.2 µM. Moreover, the “Cytotoxic effect microscopically visible” value in the series on Hep-2 cells (33 µM) is on record as “-”.

In the case of `O=C(NCc1ccccc1)c1cc(-c2ccccc2)c(=O)n2c1sc1ccc(OC3CCCCC3)cc12` [Compound 3], in the series with RSV-A2, the activity at 0.3 µM worked out at 100%, the activity at 3 µM came to 93% and the activity at 33 µM was 67%.

`CCN(CC)CCCC(C)Nc1ccnc2cc(Cl)ccc12` (centres unmarked) [chloroquine, reference compound]: in the series with HCoV-OC43, the EC50 amounted to 0.19 µM.

For the molecule `NC(=O)c1ncn([C@@H]2O[C@H](CO)[C@@H](O)[C@H]2O)n1` [ribavirin, reference compound], the half-maximal effective concentration (EC50) with RSV-A2 (setting [6]) is 37 µM. Moreover, the CC50 in “in vitro [3]” is > 2400 µM.

Turning to `O=C(N[C@@H](CO)C(=O)O)c1cc(-c2ccccc2)c(=O)n2c1sc1ccc(OC3CCCCC3)cc12` [Compound 8], in the series with RSV-A2, the activity at 0.3 µM was 100%, the activity at 3 µM was 100% and the activity at 33 µM stood at 98%.

For `COc1ccc(-c2cc(C(=O)N[C@@H](Cc3ccc(O)cc3)C(=O)O)c3sc4ccc(OC5CCCCC5)cc4n3c2=O)cc1F` [Compound 2], in the series with RSV-A2, the activity at 0.3 µM is 100% and the activity at 3 µM came out at 44%. For the same molecule, in the series with HCoV-OC43, the activity at 0.3 µM amounted to 95%, the activity at 3 µM was 54%, the activity at 33 µM was 1% and the EC50 was found to be 4.67 µM. For the same molecule, the CC50 in [1] came out at 82.9 µM. Further, in the series with Hep-2 cells (33 µM), the “Cytotoxic effect microscopically visible” value is “-”.

Turning to `O=C(N[C@@H](Cc1ccc(O)cc1)C(=O)O)c1cc(-c2ccccc2)c(=O)n2c1sc1ccc(OC3CCCC3)cc12` [Compound 17], the “Cytotoxic effect microscopically visible” value in the series with Hep-2 cells (33 µM) is reported as “-”.

Take `O=C(N[C@@H](Cc1ccccc1)C(=O)O)c1cc(-c2ccccc2)c(=O)n2c1sc1ccc(OC3CCCCC3)cc12` [Compound 26]: the “Cytotoxic effect microscopically visible” value in the series on Hep-2 cells (33 µM) and with MRC-5 cells was “-” throughout.

For the molecule `O=C(N[C@@H](Cc1ccc(O)cc1)C(=O)O)c1cc(-c2ccccc2F)c(=O)n2c1sc1ccc(OC3CCCCC3)cc12` [Compound 15], in the series on RSV-A2, the activity at 0.3 µM stood at 86%, the activity at 3 µM turned out to be 85% and the activity at 33 µM was determined as 40%.

Regarding `NC(=O)CCNC(=O)c1cc(-c2ccccc2)c(=O)n2c1sc1ccc(OC3CCCCC3)cc12` [Compound 12], in the series on Hep-2 cells (33 µM), the “Cytotoxic effect microscopically visible” value is listed as “-”.

For the molecule `O=C(N[C@@H](Cc1ccc(O)cc1)C(=O)O)c1cc(-c2cccc(F)c2)c(=O)n2c1sc1ccc(OC3CCCCC3)cc12` [Compound 16], the concentration giving a half-maximal response (EC50) in the series on RSV-A2 (setting [6]) was 18.6 µM; in the series with HCoV-OC43, 4.22 µM. The CC50 came out at 84.7 µM in series [1] and 72.9 µM in series [4].

With `CCN(CC)CCOc1ccc2sc3c(C(=O)Oc4ccc(S(N)(=O)=O)cc4)cc(-c4ccccc4)c(=O)n3c2c1` [Compound 28], the “Cytotoxic effect microscopically visible” value with Hep-2 cells (33 µM), in the series on MRC-5 cells and in the series with MDCK cells was “-” in each case.

`CC(CC(=O)O)NC(=O)c1cc(-c2ccccc2)c(=O)n2c1sc1ccc(OC3CCCCC3)cc12` (centres unmarked) [Compound 21]: the “Cytotoxic effect microscopically visible” value with Hep-2 cells (33 µM), in the series with MRC-5 cells and in the series on MDCK cells was “-” throughout.

Take `CCOC(=O)C1=C[C@@H](OC(CC)CC)[C@H](NC(C)=O)[C@@H](N)C1` [oseltamivir, reference compound]: in the series on IFV-A H1N1, the EC50 turned out to be 0.17 µM. Also, the CC50 in “in vitro [5]” is > 200 µM.

`O=C(c1cc(-c2ccccc2)c(=O)n2c1sc1ccc(OC3CCCCC3)cc12)N1CCC[C@@H](O)C1` [Compound 11]: the “Cytotoxic effect microscopically visible” value in the series on Hep-2 cells (3 µM), in the series on Hep-2 cells (33 µM), in the series on MRC-5 cells and in the series on MDCK cells was “-” throughout.

On to `O=C(O)CC(NC(=O)c1cc(-c2ccccc2)c(=O)n2c1sc1ccc(OC3CCCCC3)cc12)c1ccccc1` (centres unmarked) [Compound 6], for which the “Cytotoxic effect microscopically visible” value in the series with Hep-2 cells (3 µM), in the series with Hep-2 cells (33 µM) and in the series on MRC-5 cells was “-” in each case.

Consider `O=C(NCc1ccc(O)cc1)c1cc(-c2ccccc2)c(=O)n2c1sc1ccc(OC3CCCCC3)cc12` [Compound 13], for which, in the series on RSV-A2, the activity at 0.3 µM came out at 100%, the activity at 3 µM was 15% and the activity at 33 µM stood at 0%. The EC50 with RSV-A2 (HEp-2, read-out: EC50 (µM) (95% CI)) was determined as 2.87 µM. In addition, in the series on HCoV-OC43, the activity at 0.3 µM was 100%, the activity at 3 µM came to 100% and the activity at 33 µM was 64%. Besides, the CC50 in series [4] is > 200 µM.

Take `CCN(CC)CCOc1ccc(-c2cc(C(=O)Oc3ccc(S(N)(=O)=O)cc3)c3sc4ccc(OC5CCCCC5)cc4n3c2=O)cc1` [Compound 22]: the “Cytotoxic effect microscopically visible” value in the series on Hep-2 cells (33 µM) and in the series with MDCK cells was “-” each time.
